Results: patent publication US20130137975A1, “PET IMAGING” (OSI PHARMACEUTICALS, LLC, priority 2010, published 2013)
Like-named read-outs stand apart in the source and are kept apart here.

Tests used:
H292 cells [1] = test: 3H-2-deoxyglucose uptake assay in H292 cells; format: cell-based; settings: for 3H-2-deoxyglucose uptake (FIG. 16): 30 minute treatment, selected concentrations of each agent
Description: (§1) H292 and H441 cells were seeded in 12 well microtiter plates (Becton Dickinson) at 9.0×10^5 cells per well in normal glucose (11.1 mM) media for 6 hours (n=3 wells/group). The media was then changed to 5.5 mM glucose media and the cells were allowed to equilibrate overnight. On the day of the assay the media was again removed and replaced with 0.0 mM glucose (glucose starvation) for three hours. […] After a 5, 30, or 45-minute exposure the media was removed, the cells placed on ice and washed with ice-cold PBS buffer solution. The PBS was then removed and the cells were lysed in RIPA buffer for 15 minutes on ice. The lysates were harvested and counted in a Packard Liquid Scintillation counter.

H292 xenografts = test: 18F-FDG-PET imaging of H292 xenografts; format: in vivo, athymic nu/nu mice; settings: 60 mg/kg oral; 2 and 4 hours post dosing
Description: (§2) Palpable tumors were evident approximately 10 days post implant. […] Mice were fasted from food 12 hours prior to imaging with ^18F-FDG (VUIIS Cyclotron). […] After dosing, the mice were kept isolated in a chamber at a constant temperature of 30° C. using a warm air circulating device (Harvard Apparatus). […] After 30 minutes, PET imaging was performed using a Concord small animal PET imager. Images were then collected and reconstructed. Analyses of separate regions of interest (ROI) drawn over the area of the tumors (and muscle) were conducted and glucose uptake was calculated as % injected dose per gram of tissue against known phantom standards.

NCI-H441 cells = test: 3H-2-deoxyglucose uptake assay in H441 cells; format: cell-based; settings: 30 minutes after treatment; higher doses than in NCI H292 cells
Description: as §1

NCI H292 xenografts = test: tumor growth of NCI H292 xenografts under daily treatment; format: in vivo, mice; settings: daily treatment with 60 mg/kg
From the text: (§3) Palpable tumors were evident approximately 10 days post implant. When the tumors achieved a volume of approximately 300 mm^3, the animals were sorted, randomized, and placed on study.

NCI-H441 xenografts = test: tumor growth of NCI-H441 xenografts under daily treatment; format: in vivo, mice; settings: daily treatment with 60 mg/kg
From the text: as §3

H292 tumors = test: 18F-FDG biodistribution study, H292 tumors; format: in vivo, athymic nu/nu mice; settings: 60 mg/kg oral; between 2 and 8 hours post treatment; scintillation counting
Description: Palpable tumors were evident approximately 10 days post implant. […] Mice were fasted for 12-16 hours prior to dosing with the radiopharmaceutical. […] Mice were kept isolated and under a warming lamp at a temperature of approximately 30° C. One hour before the desired sacrifice time, the mice were dosed with 4-6 μCi of ^18F-FDG via the lateral tail vein. The mice were sacrificed 60 minutes later via CO2 asphyxiation, and selected tissues removed, rinsed, weighed and then placed into scintillation tubes. The samples were counted using a Cobra II Scintillation Counter and the % injected dose per gram of tissue calculated against prepared standards.

IGF-1R = IGF-1R (Homo sapiens, UniProt P08069); settings: 1 μM OSI-906; panel of 116 kinases; cited from earlier work
H441 xenografts = test: 18F-FDG-PET imaging of H441 xenografts; format: in vivo, athymic nu/nu mice; settings: 60 mg/kg oral; any time point evaluated (2, 4, 24 hours)
Description: as §2

pERK, pAKT, pS6, AS160 = test: Western blot of NCI-H292 tumor lysates in vivo, markers of altered glycolysis; design: species or system mice; settings: 60 mg/kg
Description: as §3
Tumors were homogenized in 1 mL of TGH buffer per 200 mg of tissue on ice at 15,000 rpm until total homogenization was achieved. For analysis of IGF-1R and IR phosphorylation status, after pre-clearing by centrifugation (14,000 rpm/5 minutes), the lysate was incubated overnight at 4° C. with an antiphosphotyrosine antibody, and 30 μL Protein A-sephorase was then added and further incubated for an additional two hours. […] Antibodies were obtained from Santa Cruz Biotechnology.

phospho-IGF1-R = molecular target: T1, phospho-IGF1-R (Homo sapiens, UniProt P08069); test: target inhibition in H292 tumor lysates in vivo (RTK array analysis); design: species or system mice; settings: for inhibition at 60 mg/kg: NCI-H292, read-out: target inhibition of phospho-IGF1-R, single dose 60 mg/kg
T1 construct: endogenous in cells; host or cells: NCI-H292 cells grown as subcutaneous xenograft tumours in athymic nu/nu mice
From the text: All animal studies were under the approval of the Institutional Animal Care and Use Committee in an American Association for Accreditation of Laboratory Animal Care-accredited vivarium and in accordance with the Institute of Laboratory Animal Research (Guide for Care and Use of Laboratory Animals, NIH, Bethesda, Md.). Mice were 8-week-old athymic nu/nu mice (Charles Rivers) and were housed in clean specific pathogen free rooms in groups of four mice per cage. The mice were allowed access to sterile rodent chow and water ad libitum except when undergoing FDG-PET imaging, as noted. The H292 and H441 cells were harvested from T225 flasks at 90% confluency and implanted in the right thigh subcutaneously at a concentration of 1.0×10^7 cells per 100 μL of PBS inoculum. […] When the tumors achieved a volume of approximately 300 mm^3, the animals were sorted, randomized, and placed on study.
Tumor lysates were prepared according to the manufacturer's protocol (Proteome Profiler, R&D Systems). Briefly, tumor lysates were solubilized in NP-40 lysis buffer and re-suspended for 30 minutes at 2° C. with rocking. This preparation was centrifuged at 14,000×g for 5 minutes and transferred to a clean tube. Protein concentration was then determined by BCA assay. The lysate was then incubated with the Human Phospho-RTK array at 1000 μg overnight at 2° C. with rocking. The arrays were then washed, and incubated with freshly prepared detection antibody for two hours. After washing, the arrays were exposed to film for 0.5-3.0 minutes. The developed arrays were then quantitfied using a Kodak scanner and image analysis software.

H292 cells [2] = test: analysis for cell death by FACS; format: cell-based; settings: 1.0-30 μM, compared to 0.05% DMSO controls
pAKT, pS6, pERK, AS160 = test: Western blot of H292 in vitro cell lysates, downstream markers of altered glycolysis; format: cell-based
pIGF-1R = molecular target: T2, pIGF-1R (Homo sapiens, UniProt P08069); test: Western blot of NCI-H292 cells, target inhibition; format: cell-based
T2 construct: endogenous in cells; host or cells: NCI-H292
T2 sequence (P08069 31-1367): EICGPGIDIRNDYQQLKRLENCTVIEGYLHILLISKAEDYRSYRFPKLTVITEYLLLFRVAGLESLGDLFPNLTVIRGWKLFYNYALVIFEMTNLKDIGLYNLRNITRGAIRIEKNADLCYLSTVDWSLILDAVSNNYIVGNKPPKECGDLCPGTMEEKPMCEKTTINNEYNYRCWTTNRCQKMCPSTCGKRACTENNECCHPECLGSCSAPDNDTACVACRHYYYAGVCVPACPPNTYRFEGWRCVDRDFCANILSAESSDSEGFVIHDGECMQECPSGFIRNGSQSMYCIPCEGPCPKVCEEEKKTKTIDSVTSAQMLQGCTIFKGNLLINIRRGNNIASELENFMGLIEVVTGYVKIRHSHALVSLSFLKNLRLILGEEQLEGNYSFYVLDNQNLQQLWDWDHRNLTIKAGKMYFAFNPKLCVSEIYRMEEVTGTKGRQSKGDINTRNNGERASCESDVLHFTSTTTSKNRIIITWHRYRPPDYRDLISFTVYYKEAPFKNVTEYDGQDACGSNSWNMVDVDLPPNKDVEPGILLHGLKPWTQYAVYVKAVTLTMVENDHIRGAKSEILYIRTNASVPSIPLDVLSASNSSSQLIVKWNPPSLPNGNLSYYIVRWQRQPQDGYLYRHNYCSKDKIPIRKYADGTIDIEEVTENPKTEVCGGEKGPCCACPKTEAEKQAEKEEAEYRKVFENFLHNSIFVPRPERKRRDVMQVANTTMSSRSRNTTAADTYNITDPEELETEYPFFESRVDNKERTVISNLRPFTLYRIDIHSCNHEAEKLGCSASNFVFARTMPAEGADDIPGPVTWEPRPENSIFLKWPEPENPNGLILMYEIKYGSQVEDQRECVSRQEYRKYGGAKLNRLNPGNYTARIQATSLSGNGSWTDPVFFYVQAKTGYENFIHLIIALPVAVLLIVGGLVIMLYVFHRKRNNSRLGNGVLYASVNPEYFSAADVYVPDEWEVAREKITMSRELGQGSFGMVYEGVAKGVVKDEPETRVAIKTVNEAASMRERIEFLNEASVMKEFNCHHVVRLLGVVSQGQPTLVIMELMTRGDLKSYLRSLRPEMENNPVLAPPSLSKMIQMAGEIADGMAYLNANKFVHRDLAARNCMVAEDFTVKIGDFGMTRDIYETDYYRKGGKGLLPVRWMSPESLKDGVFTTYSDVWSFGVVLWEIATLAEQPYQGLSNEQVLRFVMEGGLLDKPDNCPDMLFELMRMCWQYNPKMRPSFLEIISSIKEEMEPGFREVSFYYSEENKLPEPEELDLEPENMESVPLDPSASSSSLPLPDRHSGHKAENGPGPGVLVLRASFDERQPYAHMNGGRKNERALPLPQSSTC

T1 sequence (P08069 31-1367): as above
IGF-1R, sequence (P08069 31-1367): as above

C=C1[C@@H](C)[C@H]2[C@H](Cc3ccccc3)NC(=O)[C@]23OC(=O)/C=C/[C@H](O)CCC[C@@H](C)C/C=C/[C@H]3[C@@H]1O [Cytochalasin B, reference compound]
3H-2-deoxyglucose uptake, positive control (H292 cells [1]; 2.5-10 μM, 30 minutes post treatment (FIG. 3)): significantly inhibits uptake

CC1(O)CC(c2nc(-c3ccc4ccc(-c5ccccc5)nc4c3)c3c(N)nccn23)C1 (stereo not drawn) [OSI-906, cis-3-[8-amino-1-(2-phenyl-quinolin-7-yl)-imidazo[1,5-a]pyrazin-3-yl]-1-methylcyclobutanol]
18F-FDG uptake (PET SUV) (H292 xenografts): significant decrease
3H-2-deoxyglucose uptake (FIG. 13) (NCI-H441 cells): dose dependent decrease
tumor growth compared to vehicle controls (NCI H292 xenografts): significant tumor growth inhibition
3H-2-deoxyglucose uptake (FIG. 16) (H292 cells [1]): rapid inhibition
3H-2-deoxyglucose uptake, onset (H292 cells [1]; as early as five minutes post treatment, increasing concentrations): significant decrease
tumor growth compared to vehicle-treated cohort (NCI-H441 xenografts): do not exhibit a difference in tumor growth
decrease of 18F-FDG uptake in tumor samples compared to vehicle control animals (H292 tumors): 20-50%
inhibition of IGF-1R (IGF-1R): greater than 50%
18F-FDG uptake (PET SUV) (H441 xenografts): do not demonstrate a significant change
phospho-AKT, phospho-S6, phospho-ERK and AS160 in tumor lysates (pERK, pAKT, pS6, AS160; 4 hours post treatment, compared to untreated control lysates): decreased signal intensity
pERK, pAKT, pS6 in tumor lysates (pERK, pAKT, pS6, AS160; 24 hours post dose): return to baseline levels
inhibition at 60 mg/kg (phospho-IGF1-R; 2 and 4 hours post treatment): ~85%
inhibition at 60 mg/kg (phospho-IGF1-R; 24 hours): 70%
target inhibition of pIGF-1R, RTK array (FIGS. 17 and 18) (phospho-IGF1-R; single 60 mg/kg treatment, 2, 4 and 24 hours): strong target inhibition
cell death by FACS analysis (H292 cells [2]): no significant cell death
signal intensity of phospho-AKT, phospho-S6 and AS160 bands (pAKT, pS6, pERK, AS160; 0.0 μM-30 μM, 30 minutes after drug treatment (FIG. 11)): dose dependent response with respect to decreased signal intensity
downstream targets pERK, pAKT, pS6, AS160 (pAKT, pS6, pERK, AS160; 30 minutes of exposure (FIG. 12)): inhibition of downstream targets
pIGF-1R (pIGF-1R; 30 minutes of exposure, all doses (FIG. 12)): target inhibition
pIGF-1R, time course (pIGF-1R; 2 hours, all concentrations (10 nM, 100 nM, 500 nM)): reduction
pIGF-1R, time course (pIGF-1R; through 24 hours, 10 nM, 100 nM, 500 nM): inhibition remains through 24 hours in all but the lowest, 10 nM concentration

C#Cc1cccc(Nc2ncnc3cc(OCCOC)c(OCCOC)cc23)c1 [erlotinib, reference compound]
3H-2-deoxyglucose uptake (FIG. 16) (H292 cells [1]): rapid inhibition
